Test results published in the METLIN SMRT retention time set (Domingo-Almenara et al. 2019).

Assay: gradient 5% acetonitrile 3 min, to 50% in 2 min, to 85% in 15 min, held 3 min, 100 µL/min
Details: column: Zorbax Extend-C18 2.1 x 50 mm; eluents: water / acetonitrile, 0.1% formic acid
Outline: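 The mobile phases were water and acetonitrile, each with 0.1% formic acid, pumped at 100 μL/min through a Zorbax Extend-C18 column (2.1 × 50 mm, 1.8 μm). Pure standards were injected as mixtures of ~100 molecules and detected by a quadrupole time-of-flight mass spectrometer in positive and negative ionization mode. Retention time came from computationally picked adduct peaks, each inspected by hand.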

Structure (SMILES) | RP-LC retention time [s]
COCCC(=O)NCCC1CCN(C(=O)Nc2cc(F)ccc2F)CC1 | 675
CC(C)c1ccc(S(=O)(=O)N2CCC3(CCN(c4cccnc4)C3)C2)cc1 (stereo not drawn) | 736
CCNC(=O)c1cnn(-c2cc(-c3nc(C(C)C)no3)ccn2)c1C | 858
COc1ccc2c(c1)C1(CCN(C(=O)c3cccc(Br)c3)C1)C(=O)N2C (stereo not drawn) | 845
CS(=O)(=O)N1CCC(C(=O)Nc2cccc(F)c2)Oc2ccccc21 (stereo not drawn) | 894
CCNC(=O)c1nc(C(=O)NC(C)C)cs1 | 656
O=[N+]([O-])c1ccc(-c2csc(Nc3ccc4c(c3)OCO4)n2)cc1 | 1110
Cn1nc(-c2nnc(-c3ccc(F)cc3)o2)c2c1CCN(S(=O)(=O)c1ccccc1F)C2 | 937
CCN1C(=O)c2ccccc2Oc2ccc(C(=O)NC3CCCC3)cc21 | 891
Cn1nccc1C(=O)Nc1sccc1-c1nc2ccccc2s1 | 1280
COc1ccccc1NC(=O)N1CCc2nc(-c3ccc(Cl)cc3)ncc2C1 | 948
CS(=O)(=O)N1CCC(C2CCN(Cc3ccc(C#N)cc3)C2)CC1 (stereo not drawn) | 597
COCCCNC(=O)C1(C)Cn2nc(-c3ccccc3)cc2C(=O)N1Cc1cccc(OC)c1 (stereo not drawn) | 887
Cc1cc2nn(CC(=O)Nc3cccc(C)c3C)c(=O)n2c(-c2ccc(F)cc2)n1 | 849
Cc1ccc(S(=O)(=O)NC(=O)NN2CCCCCC2)cc1 | 914
CCCNc1cc(N2CCC(CCC(=O)NCc3ccccc3)CC2)ncn1 | 666
CCOC(=O)c1ccc(NC(=O)CCc2ccc3nc(CC)[nH]c3c2)cc1 | 646
CCn1cc(S(=O)(=O)N2CC(Oc3ccc(-c4nc(C)no4)cc3)C2)cn1 | 844
C=CCn1ccc2c(OCC(=O)Nc3cc(C)on3)cccc2c1=O | 750
O=C(Cn1nc2ccc(-c3ccc(Cl)cc3)nn2c1=O)N1CCN(c2ccc(F)cc2)CC1 | 876
C#Cc1cccc(NC(=O)c2ccc(Cl)cc2Cl)c1 | 1060
Fc1ccccc1CSc1ccc2nnc(-c3cccnc3)n2n1 | 680
COC1CCC12CCN(C(=O)c1ccc(Cc3c(C)n[nH]c3C)o1)CC2 (stereo not drawn) | 656

Structure (SMILES) | RP-LC retention time [s]
COc1cc2c(=O)c(C(=O)c3ccncc3)cn(CC(=O)Nc3ccc(F)cc3F)c2cc1Cl | 711
CC1CCC2(CC1)NC(=O)N(CC(=O)NCCCc1ccccc1)C2=O (stereo not drawn) | 832
CN(C)c1ccc(C(CNC(=O)CN2C(=O)c3ccccc3C2=O)N2CCCC2)cc1 (stereo not drawn) | 559
COc1ccc(-c2csc3c(=O)n(CC(=O)N4CCCC4)cnc23)cc1 | 760
CC1CCN(CC[C@H]2CCCN2S(=O)(=O)c2cccc(O)c2)CC1 | 646
CCc1ccc(NC(=O)C2CCN(S(=O)(=O)c3cn(CC)cn3)CC2)cc1 | 794
Cc1ccc(C)c(S(=O)(=O)NCC2CN(C)CC23CCCCC3)c1 (stereo not drawn) | 704
O=C(CCC1CCN(c2cc(NC3CC3)ncn2)CC1)NCc1ccc(F)c(Cl)c1 | 712
CC(C)(C)c1noc(-c2ccnc(-n3cnc(C(=O)N4CCOCC4)c3)c2)n1 | 808
O=C(c1cnccn1)N1CCCCC1c1nc(-c2ccc(F)cc2)no1 (stereo not drawn) | 918
O=C(CCSCc1ccccc1F)N1CCN(c2ccccn2)CC1 | 645
O=C(c1ccco1)N1CCC(Oc2nc3ccc(F)cc3s2)CC1 | 902
CC1(CNS(=O)(=O)c2ccc(F)cc2F)CCOCC1 | 779
Cc1cccc2cc(-c3noc(C(C)C)n3)c(NCCc3ccc(S(N)(=O)=O)cc3)nc12 | 1270
Cc1sc(-c2nc(-c3cccc(F)c3)no2)cc1S(=O)(=O)N1CCN(c2ccccn2)CC1 | 959
O=C(NCCC1=CCCCC1)C1CCN(Cc2cc3ccccc3n2Cc2ccccc2Cl)CC1 | 924
CC(C)CNC(=O)CCn1c(=O)c2ccccc2n2c(=O)n(Cc3ccc(F)cc3)nc12 | 870
Cc1nc(-c2ccc(N3CCN(S(=O)(=O)c4cccnc4)CC3)nc2)no1 | 680
Cc1c(Br)cc(C(=O)NC(C)C)c(C)c1C | 838
Cc1ccc(C)c(N2CCN(c3ccnc(SCC(=O)Nc4cc(F)ccc4C)n3)CC2)c1 | 1040
Cc1ccc(F)c(-n2cc(C(=O)O)nn2)c1 | 684
O=C(CC1CCCCN1S(=O)(=O)c1ccccc1)Nc1cc(F)ccc1F (stereo not drawn) | 887
COc1ccc(-c2noc(CN3N=NC4C(=O)N(c5cccc(F)c5)C(=O)C43)n2)cc1OC (stereo not drawn) | 1260

The next lines start with the values.

RP-LC retention time [s] | Structure (SMILES)
912 | COc1ccc(CNC(=O)C2(C)CCN(S(=O)(=O)c3c(C)cc(C)cc3C)CC2)cc1
697 | CSc1nnc(-c2nn(C)c3c2CN(C(=O)c2ccccc2F)CC3)n1C
534 | Cc1cc(C)n(CCNS(C)(=O)=O)n1
872 | CCC1Oc2ccc(S(=O)(=O)N3CCC(C(=O)N(C)Cc4ccccc4)CC3)cc2NC1=O (stereo not drawn)
719 | CCC(=O)Nc1nc2cc(NC(=O)C3CCN(S(=O)(=O)N4CCOCC4)CC3)ccc2s1
842 | O=C(C1=CN(c2ccccc2F)c2cc(Cl)ccc2S1(=O)=O)N1CCCC1
672 | Cn1c(N2CCN(C(=O)c3cccc(Br)c3)CC2)cc(=O)n(C)c1=O
1040 | CC(C)CN(CC(C)C)C(=O)C1CCN(S(=O)(=O)c2cccc3nsnc23)CC1
809 | O=C(Cc1csc2nc(-c3ccccc3)cn12)Nc1ccc(F)cc1F
1010 | COc1ccc(-c2nc(CS(=O)(=O)c3ccc(C)cc3)no2)c(C)c1
576 | CCn1cccc(-c2nnc(SCC(=O)NCc3ccco3)n2C)c1=O
925 | CCc1nc2cc(-c3noc(-c4ccc(NC(C)=O)cc4)n3)ccc2o1
764 | C=CCc1c(C)nn(-c2nc(CC(=O)Nc3nc4ccccc4[nH]3)cs2)c1C
1290 | CCc1nc(-c2ccc(-c3noc(COc4ccccc4)n3)cc2)cs1
984 | CN(CCc1noc(COc2ccc(Cl)cc2)n1)C(=O)Nc1cccc(F)c1
706 | COCCN1C(=O)c2ccccc2C(C(=O)Nc2ccc(NC(C)=O)cc2)C12CCCCC2 (stereo not drawn)
654 | CCOc1ccc(S(=O)(=O)N2CCC(C(=O)N3CCN(C)CC3)CC2)cc1C
827 | C[C@H]1CN(C(=O)C2(c3ccccc3)CC2)C[C@@H]1c1nc(-c2cccnc2)no1
901 | Cc1ccc(CNc2c(-c3cccc(Cl)c3)nc3ncccn23)cc1
1010 | CCOC(=O)Cc1csc(NC(=O)c2ccc(-c3nc4ccccc4s3)s2)n1
676 | Clc1ccccc1-c1ccc(CNc2ncn[nH]2)o1

RP-LC retention time [s] | Structure (SMILES)
744 | CC(C)CNC(=O)NCC1Cn2cccc2C(=O)N1Cc1ccccc1 (stereo not drawn)
725 | CN(Cc1ccccc1)C(=O)Cn1cnc2nc3c(cc2c1=O)CCCC3
771 | Cc1cccn2c(=O)cc(OCC(=O)Nc3ccc(SC(F)F)cc3)nc12
1060 | CCn1cc(-c2nc(C(=O)Nc3cccc(C(=O)OC)c3)cs2)c2cccnc21
726 | CC(C)CCNC(=O)NCCc1nc2cccnc2n1Cc1ccccc1
778 | O=C(NCc1csc(-c2cccs2)n1)C1CCN(C(=O)Cc2ccc(F)cc2)CC1
791 | Cc1cc(C(=O)N2CCCCC2)c2c(=O)n(CC(=O)Nc3cccc(C#N)c3)c(=O)n(C)c2n1
919 | Cc1ccc(S(=O)(=O)N2CCOCC2)cc1-c1nnc(-c2ccccc2)o1
561 | COC(=O)c1ccc(NC(=O)c2ccc(-n3ccnc3C)nn2)cc1
894 | O=C(NCc1ccccc1Br)c1cn2nc(Cl)ccc2n1
1010 | CSc1cccc(NC(=O)c2cnc(-c3ccc(C)cc3)nc2-c2ccncc2)c1
676 | Cc1[nH]c(C)c(S(=O)(=O)N2CCC(C(=O)NC3CCCCC3)CC2)c1C(=O)N1CCCC1
1110 | Cc1cc(-c2c(C)sc(C)c2S(=O)(=O)Nc2cccc(Cl)c2)n[nH]1
725 | C/C=C(/C)C(=O)O[C@H]1CC(C)=CC(=O)[C@@]2(C)CC[C@@](O)(C(C)C)[C@H]12
782 | O=C(C1COCC(=O)N1Cc1ccccc1)N1CCN(c2ccc(C(F)(F)F)cn2)CC1 (stereo not drawn)
1050 | CCN1C(=O)COc2ccc(-c3csc(NC(=O)c4cccc(C)c4)n3)cc21
651 | O=S(=O)(c1ccc(Cl)cc1)c1ccc(N2CCN(c3ccccn3)CC2)nn1
606 | CSc1cccc(Nc2c(C(=O)N3CCOCC3)cnc3nc(C)ccc23)c1
817 | CCC(CC)C(=O)N1CCc2c(c(C(=O)N3CCCC(C(=O)Nc4ccccc4C)C3)nn2C)C1 (stereo not drawn)
766 | O=S(=O)(c1ccc(F)cc1F)N1CCCC(Cn2c(C3CC3)nc3cccnc32)C1 (stereo not drawn)
943 | CCSc1nnc(-c2nn(C)c3c2CN(S(=O)(=O)c2ccc(F)cc2)CC3)n1CC
